Assay results published in patent US20090291964A1, “Potentiators of Antibacterial Activity” (priority 2003, published 2009).

Key:
[1] = tested on: S. aureus ATCC 29213; experiment: Minimal effective concentration (MEC) of EPI for EtBr; type: cell-based; details: S. aureus ATCC 29213; lowest amount of EPI which produces the maximum effect on the MIC of ethidium bromide
Procedure: The MEC was determined as the minimal concentration of EPI that produced the maximal reduction in substrate MIC.
The minimum effective concentration (MEC) for inhibition of EtBr efflux was determined in S. aureus, E. faecalis and S. pneumoniae for A-106 and C-9; reserpine was used as a comparator (Table 1).

[2] = tested on: S. aureus ATCC 29213; experiment: MIC by NCCLS microdilution, antibacterial agents with and without EPI; type: cell-based; details: S. aureus ATCC 29213
Procedure: 3% sterile laked horse blood (Quad Five, Ryegate, Mont.) was added to assays for E. faecalis and S. Pneumoniae. A final concentration of 1% DMSO was present in all assays. […]
A-106 and C-9 were tested at their respective MECs in combination with a variety of different classes of antibiotics against S. aureus ATCC 29213 (Table 2).

[3] = EPIs used at the MEC, except VX-710 at 100 μg/ml

COc1cc(C(=O)C(=O)N(C)C(Cc2ccccc2)C(=O)N(Cc2ccccc2)C(CCc2ccncc2)CCc2ccncc2)cc(OC)c1OC (stereo not shown) [VRT-013661]
MEC of EPI [1]: 3.1 µg/mL | MIC of EPI ([2]; EPI alone): >100 µg/mL | Fold-reduction in EtBr MIC [2, 3]: 4 | MIC of EtBr with EPI [2, 3]: 1.6 µg/mL
